Measured values as given in PubChem BioAssay (NCI).
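Interpolation was linear, between the two tested concentrations surrounding the appropriate level; five concentrations were tested over 48 hours in 96-well plates. TGI denotes the concentration required for complete inhibition of growth.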 Where a SMILES comes first, the peptide text is derived from it. The star is where a group is joined. Boc = CC(C)(C)OC(=O)*; OBn = c1ccc(CO*)cc1

Tests used:
Experiment in all cases: DTP human tumour cell line panel, 48 h
CCRF-CEM leukemia = tested on: CCRF-CEM leukemia
SF-295 CNS = tested on: SF-295 CNS
ACHN renal = tested on: ACHN renal
NCI-H460 lung = tested on: NCI-H460 lung
786-0 renal = tested on: 786-0 renal
OVCAR-5 ovarian = tested on: OVCAR-5 ovarian
EKVX NSCLC = tested on: EKVX NSCLC
T-47D breast = tested on: T-47D breast
MOLT-4 leukemia = tested on: MOLT-4 leukemia
MDA-MB-231 breast = tested on: MDA-MB-231 breast
HL-60(TB) leukemia = tested on: HL-60(TB) leukemia
HCC-2998 colon = tested on: HCC-2998 colon
SF-268 CNS = tested on: SF-268 CNS
OVCAR-8 ovarian = tested on: OVCAR-8 ovarian
A498 renal = tested on: A498 renal
A549 NSCLC = tested on: A549 NSCLC
SR leukemia = tested on: SR leukemia
NCI-H522 lung = tested on: NCI-H522 lung
HOP-92 NSCLC = tested on: HOP-92 NSCLC
BT-549 breast = tested on: BT-549 breast

SMILES | TGI (CCRF-CEM leukemia) [µM] | TGI (SF-295 CNS) [µM] | TGI (ACHN renal) [µM] | TGI (NCI-H460 lung) [µM] | TGI (786-0 renal) [µM] | TGI (OVCAR-5 ovarian) [µM] | TGI (EKVX NSCLC) [µM] | TGI (T-47D breast) [µM] | TGI (MOLT-4 leukemia) [µM] | TGI (MDA-MB-231 breast) [µM] | TGI (HL-60(TB) leukemia) [µM] | TGI (HCC-2998 colon) [µM] | TGI (SF-268 CNS) [µM] | TGI (OVCAR-8 ovarian) [µM] | TGI (A498 renal) [µM] | TGI (A549 NSCLC) [µM] | TGI (SR leukemia) [µM] | TGI (NCI-H522 lung) [µM] | TGI (HOP-92 NSCLC) [µM] | TGI (BT-549 breast) [µM]
O=C(/C=C/c1cccs1)c1ccc(Cl)s1 | 59.5 | > 100 | > 100 | > 100 | > 10 | > 100 | > 100 | > 100 | 52.3 | > 100 | 64.1 | 34.7 | > 100 | > 100 | > 100 | > 100 | 63.2 |  |  | 
CC(=O)[C@]1(C)[C@H](C)O[C@](C)(CO)[C@H]1O[Si](C)(C)c1ccccc1 | > 100 | > 100 | > 100 | > 100 | > 100 | > 100 | > 100 | 97.9 | > 100 | > 100 | 72.4 | > 100 | > 100 | > 100 | > 100 | > 100 | > 100 | 52.3 | > 100 | 
N#Cc1nc(NC(=O)c2ccccc2)sc1N | > 10 | > 10 | > 10 | > 10 | > 10 | > 10 | > 10 | > 10 | > 10 | > 10 | > 10 | > 10 | > 10 | > 10 | > 10 | > 10 | > 10 | > 10 | > 10 | 
COC1CC(n2ccc(=O)[nH]c2=O)OC1CO (centres undefined) | > 100 | > 100 | > 100 | > 100 | > 100 | > 100 | > 100 | > 100 | > 100 | > 100 |  | > 100 | > 100 | > 100 | > 100 | > 100 | > 100 | > 100 | > 100 | 
CC(C)C(NC(=O)CNC(=O)C1CCCN1C(=O)C(NC(=O)OC(C)(C)C)C(C)C)C(=O)NCC(=O)OCc1ccccc1 (centres undefined) (Boc-VPGVG-OBn; configuration not given here) | > 100 | > 100 | > 100 | > 100 | > 100 | > 100 | > 100 | > 100 | > 100 | > 100 | > 100 | > 100 | > 100 | > 100 | > 100 | > 100 | > 100 | > 100 | > 100 | 
ClCCCC1COc2ccccc2O1 (centres undefined) | > 100 | > 100 | > 100 | > 100 | > 100 | > 100 | > 100 |  | > 100 |  | > 100 | > 100 | > 100 | > 100 |  | > 100 | > 100 | > 100 | > 100 | > 100
CC(=O)NC(CCCOC(C)=O)C(=O)NC(CCCOC(C)=O)C(=O)NC(CCCOC(C)=O)C(=O)NC(Cc1ccc([N+](=O)[O-])cc1)C(=O)NCC(=O)OCc1ccccc1 (centres undefined) | > 100 | > 100 | > 100 | > 100 | > 100 | > 100 | > 100 | > 100 | > 100 | > 100 |  | > 100 | > 100 | > 100 | > 100 | > 100 | > 100 | > 100 | > 100 | 
O=C1NCC2(CCNCC2)N1 | > 100 | > 100 | > 100 | > 100 | > 100 | > 100 | > 100 | > 100 | > 100 | > 100 | > 100 | > 100 | > 100 | > 100 | > 100 | > 100 | > 100 |  | > 100 | 
CC1C(=O)CC[C@@]2(C)C(=O)CCCC12O (some centres undefined) |  | > 100 | > 100 | > 100 | > 100 | > 100 | > 100 | > 100 | > 100 | > 100 | > 100 | > 100 | > 100 |  | > 100 | > 100 | > 100 | > 100 | > 100 | 
CCOC(=O)NC(C(C(=O)OCC)C(=O)OCC)(C(F)(F)F)C(F)(F)F | > 100 | > 100 | > 100 | > 100 | > 100 | > 100 | > 100 | > 100 | > 100 | > 100 | > 100 |  | > 100 | > 100 | > 100 | > 100 | > 100 | > 100 | > 100 | 
CN(C)C=Nc1c(Br)cc(Br)c2nonc12 | > 100 | > 100 | > 100 | > 100 | > 100 | > 100 | > 100 | > 100 | > 100 | > 100 | > 100 | > 100 | > 100 | > 100 | > 100 | > 100 | > 100 | > 100 | > 100 | 
